Data as given in ChEMBL document CHEMBL1151630, “Antineoplastic agents, 103. The isolation and structure of hypoestestatins 1 and 2 from the East African Hypoëstes verticillaris” (1984).

Test system: P388
Experiment: Cytotoxicity against mouse P388 cells
Assay type: functional

**Q.** With `COc1ccc2c3c(c4cc(OC)c(OC)cc4c2c1)[C@@H](O)[C@@H]1CCCN1C3` [HYPOESTESTATIN 2] as the compound, how does the ED50 read?
**A.** 4 ×10⁻⁵ ug/ml
